Values of other authors in US8709476B2, “Compositions of quaternary ammonium compounds containing bioavailability enhancers” (Supernus Pharmaceuticals, Inc., priority 2003, dated 2014).

Conditions: in humans; oral dosage form

O=C(O[C@H]1C[C@H]2CC[C@@H](C1)[N+]21CCCC1)C(O)(c1ccccc1)c1ccccc1 [Trospium chloride]
bioavailability: up to 10%
